According to ChEMBL document CHEMBL1212741, “Comparative efficacies of two antimony regimens to treat Leishmania braziliensis-induced cutaneous Leishmaniasis in rhesus macaques (Macaca mulatta)” (Antimicrob Agents Chemother, 2010):
The source made the active and inactive calls. The calls are words filed in the database; no cut-off is given here.

Key:
[1] = Drug level in liver of Leishmania braziliensis MHOM/BR/2000/CP13396 infected rhesus monkey at 20 mg/kg, im qd for 21 days administered 9 weeks postinfection measured 55 days after compound dosing; assay type: ADME, organism-based, Macaca mulatta; design: dose 20 mg/kg, route intramuscular; settings: in vivo, 1320 h
Rhesus monkey [2] = experiment: Toxicity in Leishmania braziliensis MHOM/BR/2000/CP13396 infected rhesus monkey assessed as incidence of toxicity symptoms at 5 mg/kg, im qd for 21 days administered 9 weeks postinfection; assay type: organism-based, Macaca mulatta; design: dose 5 mg/kg, route intramuscular; settings: in vivo
[3] = Drug level in kidney of Leishmania braziliensis MHOM/BR/2000/CP13396 infected rhesus monkey at 20 mg/kg, im qd for 21 days administered 9 weeks postinfection measured 95 days after compound dosing; assay type: ADME, organism-based, Macaca mulatta; design: dose 20 mg/kg, route intramuscular; settings: in vivo, 2280 h
[4] = Drug level in kidney of Leishmania braziliensis MHOM/BR/2000/CP13396 infected rhesus monkey at 5 mg/kg, im qd for 21 days administered 9 weeks postinfection measured 55 days after compound dosing; assay type: ADME, organism-based, Macaca mulatta; design: dose 5 mg/kg, route intramuscular; settings: in vivo, 1320 h
Rhesus monkey [5] = experiment: Hepatotoxicity in Leishmania braziliensis MHOM/BR/2000/CP13396 infected rhesus monkey assessed as incidence of hepatocellular acidophilic necrosis at 5 mg/kg, im qd for 21 days administered 9 weeks postinfection; assay type: toxicity, organism-based, Macaca mulatta; design: dose 5 mg/kg, route intramuscular; settings: in vivo
Rhesus monkey [6] = experiment: Hepatotoxicity in Leishmania braziliensis MHOM/BR/2000/CP13396 infected rhesus monkey assessed as incidence of hepatocellular acidophilic necrosis at 20 mg/kg, im qd for 21 days administered 9 weeks postinfection; assay type: toxicity, organism-based, Macaca mulatta; design: dose 20 mg/kg, route intramuscular; settings: in vivo
[7] = Drug level in spleen of Leishmania braziliensis MHOM/BR/2000/CP13396 infected rhesus monkey at 20 mg/kg, im qd for 21 days administered 9 weeks postinfection measured 95 days after compound dosing; assay type: ADME, organism-based, Macaca mulatta; design: dose 20 mg/kg, route intramuscular; settings: in vivo, 2280 h
[8] = Drug level in spleen of Leishmania braziliensis MHOM/BR/2000/CP13396 infected rhesus monkey at 20 mg/kg, im qd for 21 days administered 9 weeks postinfection measured 55 days after compound dosing; assay type: ADME, organism-based, Macaca mulatta; design: dose 20 mg/kg, route intramuscular; settings: in vivo, 1320 h
[9] = Drug level in spleen of Leishmania braziliensis MHOM/BR/2000/CP13396 infected rhesus monkey at 5 mg/kg, im qd for 21 days administered 9 weeks postinfection measured 55 days after compound dosing; assay type: ADME, organism-based, Macaca mulatta; design: dose 5 mg/kg, route intramuscular; settings: in vivo, 1320 h
Rhesus monkey [10] = experiment: Toxicity in Leishmania braziliensis MHOM/BR/2000/CP13396 infected rhesus monkey assessed as incidence of toxicity symptoms at 20 mg/kg, im qd for 21 days administered 9 weeks postinfection; assay type: organism-based, Macaca mulatta; design: dose 20 mg/kg, route intramuscular; settings: in vivo
[11] = Drug level in liver of Leishmania braziliensis MHOM/BR/2000/CP13396 infected rhesus monkey at 20 mg/kg, im qd for 21 days administered 9 weeks postinfection measured 95 days after compound dosing; assay type: ADME, organism-based, Macaca mulatta; design: dose 20 mg/kg, route intramuscular; settings: in vivo, 2280 h
[12] = Drug level in kidney of Leishmania braziliensis MHOM/BR/2000/CP13396 infected rhesus monkey at 5 mg/kg, im qd for 21 days administered 9 weeks postinfection measured 95 days after compound dosing; assay type: ADME, organism-based, Macaca mulatta; design: dose 5 mg/kg, route intramuscular; settings: in vivo, 2280 h
[13] = Drug level in liver of Leishmania braziliensis MHOM/BR/2000/CP13396 infected rhesus monkey at 5 mg/kg, im qd for 21 days administered 9 weeks postinfection measured 55 days after compound dosing; assay type: ADME, organism-based, Macaca mulatta; design: dose 5 mg/kg, route intramuscular; settings: in vivo, 1320 h
[14] = Drug level in kidney of Leishmania braziliensis MHOM/BR/2000/CP13396 infected rhesus monkey at 20 mg/kg, im qd for 21 days administered 9 weeks postinfection measured 55 days after compound dosing; assay type: ADME, organism-based, Macaca mulatta; design: dose 20 mg/kg, route intramuscular; settings: in vivo, 1320 h
[15] = Drug level in liver of Leishmania braziliensis MHOM/BR/2000/CP13396 infected rhesus monkey at 5 mg/kg, im qd for 21 days administered 9 weeks postinfection measured 95 days after compound dosing; assay type: ADME, organism-based, Macaca mulatta; design: dose 5 mg/kg, route intramuscular; settings: in vivo, 2280 h
[16] = Drug level in spleen of Leishmania braziliensis MHOM/BR/2000/CP13396 infected rhesus monkey at 5 mg/kg, im qd for 21 days administered 9 weeks postinfection measured 95 days after compound dosing; assay type: ADME, organism-based, Macaca mulatta; design: dose 5 mg/kg, route intramuscular; settings: in vivo, 2280 h
Leishmania braziliensis [17] = experiment: […] activity against Leishmania braziliensis MHOM/BR/2000/CP13396 infected Rhesus monkey assessed as total decrease in parasite-induced skin lesions at 20 mg/kg, intramuscular daily for 21 days administered 9 weeks post infection; assay type: functional, organism-based; design: dose 20 mg/kg
Leishmania braziliensis [18] = experiment: […] activity against Leishmania braziliensis MHOM/BR/2000/CP13396 infected Rhesus monkey assessed as relapse in parasite-induced skin lesions at 5 mg/kg, intramuscular daily for 21 days administered 9 weeks post infection; assay type: functional, organism-based; design: dose 5 mg/kg

MEGLUMINE ANTIMONATE [listing 1 of 2 here]
Drug uptake [1]: 4800 ng/g | Activity (Rhesus monkey [2]): Non-toxic | Drug uptake [3]: 313 ng/g | Drug uptake [4]: 500 ng/g | Activity (Rhesus monkey [5]): Toxic | Activity (Rhesus monkey [6]): Toxic | Drug uptake [7]: 2220 ng/g | Drug uptake [8]: 1593 ng/g | Drug uptake [9]: 1433 ng/g | Activity (Rhesus monkey [10]): Non-toxic | Drug uptake [11]: 1800 ng/g | Drug uptake [12]: 152 ng/g | Drug uptake [13]: 2913 ng/g | Drug uptake [14]: 698.3 ng/g | Drug uptake [15]: 669.3 ng/g | Drug uptake [16]: 476.7 ng/g

MEGLUMINE ANTIMONATE [listing 2 of 2 here]
inhibition (Leishmania braziliensis [17]): Active | Activity (Leishmania braziliensis [18]): 50%
